Test results: the NIST ThermoML archive (doi:10.1016/j.tca.2012.05.023)
± gives the expanded uncertainty stated by the source.

Assay: molar heat capacity at constant pressure
Details: 101.33 kPa, Crystal, Vacuum adiabatic calorimetry

O=C([O-])c1cnccn1.O=C([O-])c1cnccn1.O=C([O-])c1cnccn1.[Cr+3] [chromium(III) pyrazine-2-carboxylate]
Details	molar heat capacity at constant pressure [J/K/mol]
235 K	359.23 ± 2.2
235.75 K	360.47 ± 2.2
238.84 K	363.97 ± 2.2
240 K	365.49 ± 2.2
242.01 K	368.73 ± 2.2
245 K	371.73 ± 2.3
245.86 K	373.07 ± 2.3
249.57 K	377.69 ± 2.3
250 K	377.95 ± 2.3
252.6 K	381.55 ± 2.3
255 K	384.15 ± 2.3
255.7 K	385.19 ± 2.4
258.73 K	388.65 ± 2.4
260 K	390.33 ± 2.4
261.82 K	392.4 ± 2.4
264.85 K	396.6 ± 2.4
265 K	396.49 ± 2.4
267.86 K	400.48 ± 2.4
270 K	402.62 ± 2.5
270.92 K	403.75 ± 2.5
273.93 K	407.18 ± 2.5
275 K	408.73 ± 2.5
276.89 K	410.85 ± 2.5
279.85 K	414.48 ± 2.5
280 K	414.81 ± 2.5
282.87 K	418.25 ± 2.5
285 K	420.87 ± 2.6
285.83 K	421.97 ± 2.6
288.79 K	425.74 ± 2.6
290 K	426.91 ± 2.6
291.89 K	428.76 ± 2.6
294.92 K	432.73 ± 2.6
295 K	432.92 ± 2.6
297.94 K	436.5 ± 2.7
298.15 K	436.69 ± 2.7
300 K	438.9 ± 2.7
300.28 K	439.48 ± 2.7
302.83 K	442.7 ± 2.7
305 K	444.86 ± 2.7
305.99 K	446.12 ± 2.7
309.09 K	450.09 ± 2.7
310 K	450.79 ± 2.7
312.18 K	454.16 ± 2.8
315 K	456.7 ± 2.8
315.35 K	457.58 ± 2.8
318.38 K	461.21 ± 2.8
320 K	462.57 ± 2.8
321.54 K	464.38 ± 2.8
324.64 K	468.15 ± 2.9
325 K	468.42 ± 2.9
327.67 K	471.32 ± 2.9
330 K	474.25 ± 2.9
330.76 K	475.09 ± 2.9
333.79 K	478.57 ± 2.9
335 K	480.04 ± 2.9
336.88 K	481.84 ± 2.9
339.91 K	485.31 ± 3
340 K	485.8 ± 3
343.01 K	488.64 ± 3
345 K	491.54 ± 3
345.97 K	491.76 ± 3
349.05 K	495.84 ± 3
350 K	497.25 ± 3
352.03 K	499.11 ± 3
355 K	502.92 ± 3.1
355.1 K	502.61 ± 3.1
358.14 K	506.45 ± 3.1
360 K	508.57 ± 3.1
361.31 K	510.02 ± 3.1
364.47 K	513.54 ± 3.1
365 K	514.18 ± 3.1
367.57 K	517.31 ± 3.1
370 K	519.77 ± 3.2
370.74 K	520.43 ± 3.2
373.88 K	524.09 ± 3.2
375 K	525.32 ± 3.2
377.03 K	527.59 ± 3.2
380 K	530.85 ± 3.2
380.17 K	530.85 ± 3.2
383.23 K	534.71 ± 3.2
385 K	536.34 ± 3.3
386.16 K	537.95 ± 3.3
389.19 K	541.27 ± 3.3
390 K	541.8 ± 3.3
392.45 K	544.56 ± 3.3
395 K	547.22 ± 3.3
395.47 K	547.81 ± 3.3
400 K	552.62 ± 3.4
